Like-named read-outs stand apart in the source and are kept apart here. Some results are limits rather than exact numbers.

Assay [1] deals with MCF-10A normal human breast epithelial cells. As to the kind of experiment: MTT cytotoxicity test, MCF-10A. The format is cell-based. The note with it: 24 h incubation, read-out: IC50, cell viability (MTT). The procedure:
MCF-7 and MDA-MB-231 human breast cancer cell lines, as well as MCF-10A normal human breast epithelial cells, were acquired from the American Type Culture Collection (ATCC, Manassas, VA, USA). The characteristics of the breast cancer cell lines used in this study are compared in Table 1. MCF-7 and MDA-MB-231 cells were cultured in Dulbecco’s modified Eagle’s medium (Gibco, San Diego, CA, USA), while MCF-10A cells were cultured in the mammary epithelial cell growth medium with the following supplements: BPE, hEGF, insulin, hydrocortisone, GA-1000 (Lonza, Basel, Switzerland). All media were complemented by 10% of fetal bovine serum (FBS) and 1% of the following antibiotics: penicillin and streptomycin (both Gibco, San Diego, CA, USA). The cells were maintained in an incubator that provides the optimal growth conditions for the cell culture: 5% CO2, 37 °C, and humidity in a range of 90–95%. The cells were cultured in 100 mm plates (Sarstedt, Newton, NC, USA). Subsequently, after obtaining a subconfluent cell culture, the cells were detached with 0.05% trypsin with 0.02% EDTA (Gibco, San Diego, CA, USA). […] In this study, cells that obtained 80% confluence were used. The MTT assay was used to determine the cytotoxic effects of the compounds in the study on MCF-7 and MDA-MB-231 breast cancer cells as well as MCF-10A normal human breast epithelial cells based on Carmichael’s method. […] After this time, the medium was removed, and the cell monolayer was washed with warm phosphate-buffered saline (PBS) without calcium and magnesium. In the next step, PBS and MTT solution in PBS (5 mg/mL) were added to each well to obtain a final MTT concentration of 0.5 mg/mL, and then the cells were incubated for 4 h (37 °C temperature, 5% CO2, 90–95% humidity). After the incubation period, the contents of each well were removed, 1 mL of DMSO was added to dissolve the formazan, and then the plate with the added DMSO was mixed for 5–10 min on a microplate shaker (Boeco, Hamburg, Germany). Then, 10 µL of Sorensen’s glycine buffer (a solution of 0.1 M glycine and 0.1 M sodium chloride adjusted to pH 10.5 with 0.1 M sodium hydroxide) was added. The absorbance of the obtained solution was immediately measured at a wavelength of λ = 570 nm using a Thermo Scientific Evolution 201 UV–VIS spectrophotometer (Thermo Fisher Scientific, Waltham, MA, USA). The absorbance result obtained in the control cells (without the addition of the tested compounds) was taken as 100%, while the viability of cells incubated with the tested compounds was presented as a percentage of the control value.
For orientation: Formazan colour is commonly taken as a measure of viable cells.

The test system of assay [2] is MDA-MB-231 breast cancer cells. As to the kind of experiment: Mitochondrial membrane potential (JC-1, flow cytometry), MDA-MB-231. The format is cell-based, human. As to conditions: 24 h. The protocol:
The entire cell staining and cytometric analysis procedures were performed according to the instructions provided with the kit. In the first step, the cells (1 × 10^6 cells/sample) were washed and resuspended in 0.5 mL of buffer containing 10 µg/mL JC-1 dye. Incubation was carried out for 15 min at room temperature, protected from light. Afterward, the cells were washed twice with buffer, resuspended in 0.5 mL PBS, and immediately analyzed using a flow cytometer (BD FACSCanto II; 10,000 events measured) and the FACSDiva 6.0 software (BD Biosciences Systems, San Jose, CA, USA) to count the percentage of cells with reduced ΔΨm. The equipment was calibrated with the BD Cytometer Setup and Tracking Beads (BD Biosciences, San Diego, CA, USA).
On the technique in general: A flow cytometer gives signals particle by particle.

Assay [3] relates to caspase 9. As to the kind of experiment: Caspase 9 activity (FAM-FLICA, flow cytometry), MCF-7. The note with it: 24 h. The format is cell-based, human. The procedure: (§1) The FAM-FLICA® Caspase Assay kits (all from ImmunoChemistry Technologies, Bloomington, MN, USA) and flow cytometer (BD FACSCanto II, BD Biosciences Systems, San Jose, CA, USA) were used to evaluate the activity of caspase 3/7, 8, and 9. MCF-7 and MDA-MB-231 cells were treated with selenoesters under the study (EDAG-1 and EDAG-8) and a reference agent (cisplatin) at two different concentrations (0.5 and 1 µM; treatment duration: 24 h). Following this, cells were collected, washed twice with cold PBS, and resuspended in an Apoptosis Wash Buffer to a final concentration of 5 × 10^5 cells/mL. In the next step, 290 µL each of cell suspension was taken and transferred into tubes. Then 10 µL of FLICA solution diluted immediately before use (1:5 v/v, using PBS) was added to the cells, mixed by pipetting, and incubated in the dark for 1 h at 37 °C. After this time, the cells were washed twice with 2 mL Apoptosis Wash Buffer, centrifuged, and resuspended in 300 µL of the buffer. Thus, prepared samples were immediately analyzed using a BD FACSCanto II flow cytometer (10,000 events) with the FACSDiva 6.0 software (both from BD Biosciences Systems, San Jose, CA, USA). The equipment calibration was carried out using the BD Cytometer Setup and Tracking Beads (BD Biosciences, San Diego, CA, USA).

Assay [4] has as its system caspase 9. As to the kind of experiment: Caspase 9 activity (FAM-FLICA, flow cytometry), MDA-MB-231. The format is cell-based, human. The note with it: 24 h. The procedure:
as §1

A further assay has as its system caspase 7. In words: Caspase 3/7 activity (FAM-FLICA, flow cytometry), MCF-7. As to conditions: MCF-7 (lack caspase 3), 24 h. The format is cell-based, human. The protocol: as §1
A further assay concerns LC3A/B. As to the kind of experiment: LC3A/B protein level by flow cytometry, MCF-7. The format is cell-based, human. The note with it: 24 h. The procedure:
For this purpose, Akt (PE), Bax (FITC), Bcl-2 (Alexa Fluor® 647), LC3A/B (Alexa Fluor® 488), and p53 (Alexa Fluor® 488) antibodies conjugated to different fluorochromes (all from Cell Signaling Technology, Beverly, MA, USA) were utilized. Each assay was performed according to the manufacturer's protocol available on their website. After incubation with the tested compounds, the cells were centrifuged, resuspended in 4% formaldehyde (100 μL/1 × 10^6 cells), and fixed for 15 min at room temperature. Afterward, to remove the formaldehyde, the cells were washed by centrifugation with excess PBS and the permeabilization step was triggered. For this purpose, ice-cold 90% methanol was added to the pre-chilled cell pellet, gently vortexed, and incubated for 1 h on ice. Later, the cells were washed by centrifugation with excess PBS again, resuspended in 100 μL of 1:100 diluted primary antibody (stain buffer was used for dilution), and incubated for 1 h at room temperature in the dark. After incubation, the cells were washed, resuspended in 300 μL PBS, and immediately tested with a flow cytometer (BD FACSCanto II, BD Biosciences Systems, San Jose, CA, USA; 10,000 events measured). The obtained results were analyzed using the FACSDiva 6.0 software (BD Biosciences Systems, San Jose, CA, USA). In the case of the p53 protein, the MRF values were obtained first during the flow cytometer readout utilizing FACSDiva software and later analyzed using FCS Express 7 (De Novo Software, Pasadena, CA, USA). The equipment calibration was performed using the BD Cytometer Setup and Tracking Beads (BD Biosciences, San Diego, CA, USA).

Consider `N.N.[Cl][Pt][Cl]` [Cisplatin, reference compound], for which the IC50 (usually the concentration that inhibits the measured activity by half) in assay [1] is greater than 5000 nM. The “Decreased ΔΨm ± SD (cells)” value in assay [2] (MDA-MB-231, 0.5 μM) came out at 11.2 ± 0.9%; in assay [2] (MDA-MB-231, 1 μM), 12.9 ± 0.2%. Also, the “Active caspase 9 ± SD (cells)” value with caspase 9 [3] (MCF-7, 0.5 μM) amounted to 5.9 ± 0.1%; with caspase 9 [3] (MCF-7, 1 μM) it was 6.1 ± 0.6%; in the assay with caspase 9 [4] (MDA-MB-231, 0.5 μM), 2.7 ± 0.1%; in the assay on caspase 9 [4] (MDA-MB-231, 1 μM), 2.8 ± 0.3%. For the same molecule, the results for the “Active caspase 7 ± SD (cells)” value with caspase 7 (0.5 μM) and in the assay with caspase 7 (1 μM) were 4.3 ± 0.3% and 4.6 ± 0.3%, respectively. Also, the “LC3A/B positive cells ± SD” value with LC3A/B (MCF-7, 0.5 μM) is on record as 3.3 ± 0.5%; in the assay on LC3A/B (MCF-7, 1 μM) it was 3.5 ± 0.4%.
Turning to `CC(=O)C[Se]C(=O)c1ccc(C(=O)[Se]CC(C)=O)cc1` [EDAG-1, Se,Se-bis(2-oxopropyl) benzene-1,4-bis(carboselenoate)], in assay [1] (Homo sapiens), the IC50 is 410 ± 30 nM. In addition, the “Decreased ΔΨm ± SD (cells)” value worked out at 29.2 ± 2.2% in assay [2] (MDA-MB-231, 0.5 μM) and 72.1 ± 0.9% in assay [2] (MDA-MB-231, 1 μM). In addition, the “Active caspase 9 ± SD (cells)” value in the assay with caspase 9 [3] (MCF-7, 0.5 μM) is on record as 7.1 ± 0.7%; in the assay on caspase 9 [3] (MCF-7, 1 μM) it was 12.8 ± 1.4%; with caspase 9 [4] (MDA-MB-231, 0.5 μM) it was 5.2 ± 0.7%; in the assay on caspase 9 [4] (MDA-MB-231, 1 μM), 8.5 ± 0.6%. For the same molecule, the “Active caspase 7 ± SD (cells)” value in the assay on caspase 7 (0.5 μM) is reported as 5.7 ± 0.5%; in the assay with caspase 7 (1 μM), 6.9 ± 0.5%. The “LC3A/B positive cells ± SD” value came out at 9.9 ± 0.9% in the assay with LC3A/B (MCF-7, 0.5 μM) and 12.0 ± 1.4% in the assay with LC3A/B (MCF-7, 1 μM).
With `CC(=O)C[Se]C(=O)c1cc(C(=O)[Se]CC(C)=O)cc(C(=O)[Se]CC(C)=O)c1` [EDAG-8, Se,Se,Se-tris-(2-oxopropyl) benzene-1,3,5-tris-(carboxyselenoate)], the IC50 in assay [1] (Homo sapiens) stood at 510 ± 20 nM. In addition, the “Decreased ΔΨm ± SD (cells)” value in assay [2] (MDA-MB-231, 0.5 μM) is recorded as 55.0 ± 3.0%; in assay [2] (MDA-MB-231, 1 μM) it was 92.5 ± 0.7%. Moreover, the “Active caspase 9 ± SD (cells)” value is reported as 15.5 ± 0.5% with caspase 9 [3] (MCF-7, 0.5 μM); 22.8 ± 2.4% with caspase 9 [3] (MCF-7, 1 μM); 8.4 ± 0.9% in the assay on caspase 9 [4] (MDA-MB-231, 0.5 μM); 32.5 ± 3.8% in the assay on caspase 9 [4] (MDA-MB-231, 1 μM). In addition, the “Active caspase 7 ± SD (cells)” value in the assay on caspase 7 (0.5 μM) stood at 7.4 ± 0.8%; in the assay with caspase 7 (1 μM), 16.3 ± 2.6%. The “LC3A/B positive cells ± SD” value is reported as 11.9 ± 1.1% in the assay with LC3A/B (MCF-7, 0.5 μM) and 17.4 ± 1.3% in the assay with LC3A/B (MCF-7, 1 μM).
